Data published in ChEMBL document CHEMBL5042495, “Lead Optimization of Influenza Virus RNA Polymerase Inhibitors Targeting PA-PB1 Interaction” (J Med Chem, 2022).
The source made the active and inactive calls. No cut-off for these calls is given here.

Experiments:
[1] = Cytotoxicity in dog MDCK cells assessed as reduction in cell viability incubated for 48 hrs by crystal violet staining based assay; format: toxicity, Canis lupus familiaris
HEK293T [2] = assay: (§1) Inhibition of Influenza A virus RNA dependent RNA polymerase activity in HEK293T cells co-transfected with pPoll/NP(0)GFP(0) after 2 hrs post-transfection followed by compound addition incubated for 22 hrs by fluorescence microscopic analysis; format: cell-based
HEK293T [3] = assay: as §1, with “pPoll/NP(0)GFP(0) assessed as reduction on number of GFP positive cells at 10 uM” for “pPoll/NP(0)GFP(0)”; format: cell-based
Influenza A virus [4] = assay: Antiviral activity against Influenza A virus A/WSN/33(H1N1) strain infected in MDCK cells assessed as reduction in viral infection incubated for 48 hrs by crystal violet staining based assay; format: functional, organism-based
HEK293T [5] = assay: Inhibition of Influenza A virus RNA dependent RNA polymerase activity in HEK293T cells co-transfected with pPoll/NP(0)GFP(0) at 10 to 40 uM after 2 hrs post-transfection followed by compound addition incubated for 22 hrs by fluorescence microscopic analysis; format: cell-based; conditions: dose 10-40 µM
Influenza A virus [6] = assay: Antiviral activity against Influenza A virus A/Puerto Rico/8/34(H1N1) strain infected in MDCK cells assessed as reduction in viral infection incubated for 48 hrs by crystal violet staining based assay; format: functional, organism-based
Influenza A virus [7] = assay: Antiviral activity against Influenza A virus A/Aichi/8/68(H3N2) strain infected in MDCK cells assessed as reduction in viral infection incubated for 48 hrs by crystal violet staining based assay; format: functional, organism-based
Influenza A virus [8] = assay: Antiviral activity against Influenza A virus A/Virginia/ATCC2/2009(H1N1) strain infected in MDCK cells assessed as reduction in viral infection incubated for 48 hrs by crystal violet staining based assay; format: functional, organism-based
Influenza A virus [9] = assay: Antiviral activity against Influenza A virus A/California/7/2009(H1N1) strain infected in MDCK cells assessed as reduction in viral infection incubated for 48 hrs by crystal violet staining based assay; format: functional, organism-based
Influenza A virus [10] = assay: Antiviral activity against Influenza A virus B/Lee/40(type B) strain infected in MDCK cells assessed as reduction in viral infection incubated for 48 hrs by crystal violet staining based assay; format: functional, organism-based
HEK293T [11] = assay: as §1, with “pPoll/NP(0)GFP(0) assessed as reduction on number of GFP positive cells at 10 nM” for “pPoll/NP(0)GFP(0)”; format: cell-based

SMILES	CC50 at 48 h [1] [nM]	inhibition (HEK293T [2])	inhibition (HEK293T [3])	EC50 (Influenza A virus [4]) [nM]	inhibition (HEK293T [5])	EC50 (Influenza A virus [6]) [nM]	EC50 (Influenza A virus [7]) [nM]	EC50 (Influenza A virus [8]) [nM]	EC50 (Influenza A virus [9]) [nM]	EC50 (Influenza A virus [10]) [nM]	inhibition (HEK293T [11])
CCc1ccc2[nH]c(=O)c(CN(Cc3ccc(C(C)(C)C)cc3)[C@@H](C)c3ccc(OC)cc3)cc2c1	> 5000	Active	Active	103	Dose-Dependent Effect	–	–	–	–	–	–
CCOC(=O)C1=C[C@@H](OC(CC)CC)[C@H](NC(C)=O)[C@@H](N)C1 [OSELTAMIVIR PHOSPHATE]	–	–	–	2010	inactive	11600	2250	18500	4620	–	–
C[C@@H](c1ccc(OC(F)(F)F)cc1)N(Cc1ccc(C(C)(C)C)cc1)Cc1cc2cc(C3CC3)ccc2[nH]c1=O	> 10000	Active	Active	77	–	67	72	64	270	230	–
O=C1c2c(O)c(=O)ccn2N([C@@H]2c3ccccc3SCc3c2ccc(F)c3F)[C@@H]2COCCN12 [BALOXAVIR]	–	–	–	3	–	7	4	6	4	170	Active
COc1ccc2[nH]c(=O)c(CN(Cc3ccc(C(C)(C)C)cc3)C(C)c3ccc(OC)c(Cl)c3)cc2c1 (stereo unspecified)	> 10000	Active	Active	61	–	72	85	77	230	79	–
